# Laboratory results reported in ChEMBL document CHEMBL1150620, “Two new minor polybrominated dibenzo-p-dioxins from the marine sponge Dysidea dendyi” (J Nat Prod, 2002).
# Assay: Inhibition of cell division of Strongylocentrotus intermedius fertilized eggs
# Format: functional, Egg
row,SMILES,IC50
1,COc1cc(Br)cc(Br)c1Oc1cc(Br)cc(Br)c1O,4.7 µM
2,COc1c(Br)cc(Br)cc1Oc1ccc(Br)cc1Br,145 µM
3,COc1cc(Br)cc(Br)c1Oc1cc(Br)cc(Br)c1OC,137 µM
4,COc1cc(Br)c(Br)c2c1Oc1cc(Br)cc(Br)c1O2 [SPONGIADIOXIN A METHYL ETHER],141 µM
5,Oc1cc(Br)c(Br)c2c1Oc1cc(Br)cc(Br)c1O2 [SPONGIADIOXIN A],4.8 µM
6,COc1c(Br)c(Br)cc2c1Oc1cc(Br)cc(Br)c1O2 [SPONGIADIOXIN B METHYL ETHER],94 µM
7,Oc1c(Br)c(Br)cc2c1Oc1cc(Br)cc(Br)c1O2 [SPONGIADIOXIN B],1.1 µM
8,COc1cc(Br)cc2c1Oc1cc(Br)cc(Br)c1O2 [SPONGIADIOXIN C METHYL ETHER],166 µM
9,Oc1cc(Br)cc2c1Oc1cc(Br)cc(Br)c1O2 [SPONGIADIOXIN C],5.7 µM
